Earlier results in US20050250674A1, “Nutritional and food supplement preparation comprising creatine and orotic acid complexes, derivatives and analogs” (priority 2004, published 2005).

Conditions: oral ingestion of about 20 to 30 g per day, divided between several doses, for several days

In the case of CN(CC(=O)O)C(=N)N [creatine, methyl guanidine-acetic acid], the “increase in human skeletal muscle total creatine content” value is given as “greater than 20%”.
